Among the test systems are HS 578T breast; HT29 colon; M14 melanoma; MCF7 breast; MDA-MB-435; NCI-H522 lung; NCI/ADR-RES ovarian; OVCAR-8 ovarian; TK-10 renal; UACC-257 melanoma.
Common to all, as to assay: NCI-60 cell line screen, 48 h

These results are taken from PubChem BioAssay (NCI).

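Cells were grown in 96-well plates and exposed to each compound for 48 hours at five concentrations; endpoints were interpolated linearly between bracketing concentrations, or set to the highest concentration if not reached. At the TGI there is no net growth.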 Some results are limits rather than exact numbers.

Turning to `O=C1C=C(Nc2ccc(S(=O)(=O)Nc3nccs3)cc2)c2ccccc2C1=O`, the TGI is 75.1 µM in the test with HS 578T breast; 39.3 µM with HT29 colon; 42.8 µM in the test with M14 melanoma; 36.1 µM in the test with MCF7 breast; 33.5 µM in the test on MDA-MB-435; over 100 µM with NCI-H522 lung. Besides, the TGI was 95.3 µM in the test with NCI/ADR-RES ovarian, 47.6 µM in the test with OVCAR-8 ovarian, over 100 µM in the test with TK-10 renal and over 100 µM in the test with UACC-257 melanoma.
Turning to `CC(=O)c1c(N=[N+]=[N-])c2cccc3c2n(c1=O)CCC3`, the TGI in the test with HS 578T breast stood at 78.3 µM; with HT29 colon, 35.5 µM; in the test with M14 melanoma it was 36.3 µM; with MCF7 breast, 62.5 µM; in the test on MDA-MB-435 it was 42.7 µM; with NCI-H522 lung it was 28.1 µM. The TGI in the test on NCI/ADR-RES ovarian is 38.2 µM; in the test with OVCAR-8 ovarian, 16.1 µM; in the test on TK-10 renal, 59 µM; in the test on UACC-257 melanoma, 37.8 µM.
Consider `C=C1CCCCCCCCC/C=C/1SCCCSC`, for which the TGI in the test with HS 578T breast, in the test with HT29 colon, in the test with M14 melanoma, in the test on MCF7 breast, in the test on MDA-MB-435 and in the test on NCI-H522 lung was over 100 µM each time. The TGI in the test on NCI/ADR-RES ovarian, in the test on OVCAR-8 ovarian, in the test on TK-10 renal and in the test on UACC-257 melanoma was over 100 µM throughout.
Regarding `CCOC(=O)C(Cc1ccc(O)cc1)Nc1nc(=O)c2c(=O)oc(Cl)cc2o1` (stereo not given), the TGI with HS 578T breast came out at 11.1 µM; with HT29 colon it was 13.2 µM; with M14 melanoma, 15.1 µM; in the test with MCF7 breast it was 17.6 µM; with MDA-MB-435, 20.4 µM; in the test with NCI-H522 lung, 19.9 µM. Moreover, the TGI in the test with NCI/ADR-RES ovarian is over 69.7 µM; in the test on OVCAR-8 ovarian it was 14 µM; in the test with TK-10 renal, 20.6 µM; in the test on UACC-257 melanoma, 29.7 µM.
For `CC1(C)OP(=O)(O)C=C1Sc1ccc([N+](=O)[O-])cc1[N+](=O)[O-]`, the TGI in the test with HS 578T breast, in the test on HT29 colon, with M14 melanoma, with MCF7 breast, in the test on MDA-MB-435 and in the test on NCI-H522 lung was over 100 µM throughout. The TGI with NCI/ADR-RES ovarian, in the test on OVCAR-8 ovarian, with TK-10 renal and with UACC-257 melanoma was over 100 µM throughout.
On to `COc1ccc(CNc2nc(NC3CCCCC3)nc(NC3CCCCC3)n2)cc1`, for which the TGI in the test on HS 578T breast was over 100 µM; with HT29 colon it was over 100 µM; with M14 melanoma it was over 100 µM; in the test with MCF7 breast, 18.8 µM; with MDA-MB-435, over 100 µM; in the test on NCI-H522 lung it was 28.8 µM. The TGI with NCI/ADR-RES ovarian, in the test on OVCAR-8 ovarian, in the test on TK-10 renal and in the test with UACC-257 melanoma was over 100 µM throughout.
With `COc1cccc(-c2nc(-c3cnccn3)n(C/C=C/c3ccccc3)n2)c1`, the TGI with HS 578T breast, with HT29 colon, with M14 melanoma, with MCF7 breast, with MDA-MB-435 and in the test on NCI-H522 lung was over 10 µM in each case. The TGI with NCI/ADR-RES ovarian, in the test with OVCAR-8 ovarian, in the test with TK-10 renal and with UACC-257 melanoma was over 10 µM throughout.
As for `COc1ccc(C2c3cc4c(cc3OC(N3CCOCC3)C2C)OCO4)cc1` (stereo not given), the TGI was 63 µM in the test with HS 578T breast; over 67.6 µM with HT29 colon; over 89 µM with M14 melanoma; over 71.5 µM with MCF7 breast; over 60.4 µM in the test on MDA-MB-435; over 82 µM in the test on NCI-H522 lung. For the same compound, the TGI with NCI/ADR-RES ovarian is over 91.2 µM; in the test on OVCAR-8 ovarian, over 100 µM; with TK-10 renal it was over 100 µM; in the test with UACC-257 melanoma, over 100 µM.
Turning to `COC(=O)C1=C(OC)[C@H]2C#C/C=C\C#C[C@@H]3Nc4c(cc(O)c5c4C(=O)c4ccccc4C5=O)[C@]24O[C@@]34[C@H]1C`, the TGI in the test with HS 578T breast was 3.82 µM; in the test with HT29 colon, under 0.0409 µM; in the test with M14 melanoma, under 0.01 µM; with MCF7 breast, 0.126 µM; in the test with MDA-MB-435, 0.0448 µM; in the test on NCI-H522 lung it was 0.0177 µM. For the same compound, the TGI in the test on NCI/ADR-RES ovarian was under 0.01 µM; in the test with OVCAR-8 ovarian, under 0.01 µM; in the test with TK-10 renal, 0.176 µM; in the test on UACC-257 melanoma, 0.0363 µM.
`COc1cc(Nc2nc3cc(C(F)(F)F)ccc3nc2C(=O)O)cc(OC)c1OC`: the TGI in the test on HS 578T breast, in the test with HT29 colon, in the test with M14 melanoma, with MCF7 breast, in the test on MDA-MB-435 and in the test on NCI-H522 lung was over 100 µM throughout. Besides, the TGI in the test with NCI/ADR-RES ovarian, in the test on OVCAR-8 ovarian, with TK-10 renal and in the test with UACC-257 melanoma was over 100 µM each time.
For the compound `CCCCC1Cc2cc(O)ccc2-c2nc3cc(O)ccc3n21` (stereo not given) (tested in a mixture with another compound), the TGI with HS 578T breast amounted to 35.1 µM; in the test on HT29 colon, 31.9 µM; in the test with M14 melanoma, 28.6 µM; with MCF7 breast it was 37.5 µM; in the test with MDA-MB-435, 26.1 µM; in the test with NCI-H522 lung, 25 µM. The TGI in the test with NCI/ADR-RES ovarian stood at 49.4 µM; in the test with OVCAR-8 ovarian, 68.8 µM; in the test with TK-10 renal, 43.3 µM; in the test with UACC-257 melanoma, 45.6 µM.
For `NC1(CCNC(=O)c2ccccc2)CCN(C(=O)c2ccccc2)CC1`, the TGI in the test with HS 578T breast, in the test with HT29 colon, in the test with M14 melanoma, in the test with MCF7 breast, in the test on MDA-MB-435 and in the test with NCI-H522 lung was over 100 µM in each case. For the same compound, the TGI with NCI/ADR-RES ovarian, in the test with OVCAR-8 ovarian, in the test on TK-10 renal and in the test on UACC-257 melanoma was over 100 µM in each case.
For the compound `NCCCNCCCCN1CCOC1=O`, the TGI in the test on HS 578T breast, in the test on HT29 colon, with M14 melanoma, in the test with MCF7 breast, with MDA-MB-435 and in the test with NCI-H522 lung was over 100 µM throughout. In addition, the TGI in the test on NCI/ADR-RES ovarian, in the test on OVCAR-8 ovarian, with TK-10 renal and in the test with UACC-257 melanoma was over 100 µM in each case.
For `O=C1CC(=O)NC(=NN2C(=O)/C(=C/c3ccc(Cl)c(Cl)c3)N=C2c2ccccc2)N1`, the TGI with HS 578T breast is 50.9 µM; in the test with HT29 colon it was 44.4 µM; with M14 melanoma, 83.5 µM; in the test with MCF7 breast it was 49.8 µM; in the test on MDA-MB-435, over 100 µM; with NCI-H522 lung, 86 µM. Also, the TGI was 54.2 µM in the test with NCI/ADR-RES ovarian, 94.9 µM with OVCAR-8 ovarian, over 100 µM with TK-10 renal and over 100 µM with UACC-257 melanoma.
Turning to `C/C(=N\NC(=S)N1CCCC1)c1nc2ncccc2[nH]1`, the TGI in the test with HS 578T breast is over 100 µM; in the test with HT29 colon it was 20.2 µM; with M14 melanoma it was 31.3 µM; in the test on MCF7 breast it was 13.4 µM; in the test with MDA-MB-435, over 100 µM; in the test with NCI-H522 lung, 30.2 µM. Moreover, the TGI with NCI/ADR-RES ovarian was over 100 µM; with OVCAR-8 ovarian, 39.9 µM; with TK-10 renal it was 45 µM; in the test on UACC-257 melanoma, 10.7 µM.
Consider `S=C1NCCN1C(=S)Nc1ccccc1`, for which the TGI in the test on HS 578T breast, in the test on HT29 colon, with M14 melanoma, in the test on MCF7 breast, in the test with MDA-MB-435 and in the test on NCI-H522 lung was over 100 µM in each case. The TGI with NCI/ADR-RES ovarian, with OVCAR-8 ovarian, with TK-10 renal and in the test with UACC-257 melanoma was over 100 µM throughout.
Regarding `COCn1cnc2c(=O)nc(SC)n(-c3ccccc3)c21`, the TGI with HS 578T breast, in the test with HT29 colon, in the test with M14 melanoma, in the test on MCF7 breast, in the test on MDA-MB-435 and in the test with NCI-H522 lung was over 100 µM in each case. The TGI in the test on NCI/ADR-RES ovarian, in the test with OVCAR-8 ovarian, in the test with TK-10 renal and in the test with UACC-257 melanoma was over 100 µM each time.
Consider `N#Cc1cc2c(cc1Cl)Sc1nnc(Nc3ccccc3)n1S2(=O)=O`, for which the TGI was 6.63 µM with HS 578T breast; 6.91 µM in the test on HT29 colon; 4.78 µM in the test with M14 melanoma; over 40.4 µM with MCF7 breast; 4.8 µM with MDA-MB-435; 4.33 µM with NCI-H522 lung. The TGI is 3.43 µM in the test with NCI/ADR-RES ovarian, 4.41 µM in the test with OVCAR-8 ovarian, 13.3 µM with TK-10 renal and 3.58 µM in the test on UACC-257 melanoma.
For `OC(C/C=N/N=C/CC(O)(C(F)(F)Cl)C(F)(F)Cl)(C(F)(F)Cl)C(F)(F)Cl`, the TGI in the test on HS 578T breast, with HT29 colon, with M14 melanoma, in the test on MCF7 breast, in the test with MDA-MB-435 and in the test on NCI-H522 lung was over 10 µM in each case. The TGI with NCI/ADR-RES ovarian, with OVCAR-8 ovarian, with TK-10 renal and with UACC-257 melanoma was over 10 µM throughout.
Turning to `Cc1n[n+](Cc2ccccc2)c2sc(N)nn12`, the TGI in the test on HS 578T breast was over 100 µM; with HT29 colon, over 100 µM; with M14 melanoma, over 100 µM; in the test on MCF7 breast, over 100 µM; in the test with MDA-MB-435 it was over 100 µM; in the test with NCI-H522 lung it was 76.2 µM. Further, the TGI in the test on NCI/ADR-RES ovarian, in the test on OVCAR-8 ovarian, in the test on TK-10 renal and with UACC-257 melanoma was over 100 µM in each case.
